# Experimental data as given in US8658592B2, “Biologically active peptides and their new uses” (priority 2005, dated 2014).
# Marks after values point to notes of the source that are not given here. Ends that are not written are not given here. Peptide text beside a SMILES is read from it.
# Assays:
# [1] = tested on: human hepatitis B virus (HBV), 2.2.15 cell line; experiment: Test 1: inhibition of HBsAg and HBeAg in 2.2.15 cells (ELISA); assay type: cell-based; settings: 400 μg/ml
# Method: 2.2.15 cells at log phase were harvested and adjusted to 2×10^6/ml with MEM (containing 10% fetal bovine serum, […]). The suspension was inoculated on a 24-well culture plate with 1.5 ml per well, and incubated at 37° C., 5% CO2 for 48 hours for attachment. The peptides were added to the final concentration of 400 μg/ml with 3 parallel wells per sample. One set of blank control (3 wells) was also prepared, in which the peptide was replaced with culture medium. The plate was incubated at 37° C. for 4 days, the culture medium was then exchanged with freshly prepared medium (of the same composition as the original), and the plate was incubated for a further 4 days. By the end of incubation, the supernatants of the culture were collected, and the titers of HBsAg and HBeAg were determined by ELISA method according to the instruction of the detection kit manufacturer.
# [2] = tested on: human hepatitis B virus (HBV), 2.2.15 cell line; experiment: Test 2: inhibition of HBV-DNA in 2.2.15 cells (fluorescence quantitative PCR); assay type: cell-based; settings: 160 μg/ml
# Method: The preparation and incubation of cell suspension was repeated as in test 1 above, but at the peptide concentration of 160 μg/ml.
# [3] = tested on: carrageenin induced foot swelling; experiment: carrageenin induced foot swelling in rats; assay type: in vivo, Wistar rats
# Method: Wistar rats were divided randomly into DXM group (0.2 mg/kg/day), saline control group (1 ml/day), and three dosages of CMS-030 groups (2, 10, 20 μg/ml/day). All of the drugs were diluted to 0.5 ml with saline, and were administered intraperitoneally (i.p) daily. Two weeks after drug administration, 0.15 ml of 1% carrageenin saline solution was applied to the right foot by subcutaneous injection. 0.5 hr later, the circumference of right foot was measured precisely, and foot swelling was calculated by subtracting the pre-challenge circumference from the post-challenge value Inhibition index (%)=(foot swelling of saline control group−foot swelling of drug group)/foot swelling of saline control group×100%.
# [4] = tested on: duck hepatitis B virus (DHBV); experiment: Chongqing duck hepatitis B animal model: serum DHBV DNA and DHBsAg; assay type: in vivo, Chongqing ducks
# Method: CMS-017 dissolved in saline was applied to Chongqing duck hepatitis B animal model by intramuscular injection for 28 days. The serum levels of DHBV DNA and DHBsAg (duck hepatitis B surface antigen) were observed by serum dot-blot hybridization and ELISA respectively and compared with blank control.
# 0.1 ml DHBV DNA positive serum (5×10^7 copies/ml) was inoculated into the abdominal cavity of one-day old Chongqing ducks to set up the hepatitis animal model. 10 days after inoculation, blood samples were collected from the external jugular vein and success of infection was confirmed by dot-blot hybridization with DHBV DNA probe labeled with digoxi^[3].
# 2) CMS-017 group (n=12): 200 μg/kg/day CMS-017 (dissolved in 1 ml normal saline) applied by intramuscular injection, once per day.
# The treatment lasted for 4 weeks, and observation continued for another one week after termination of treatment. 1 ml blood samples were drawn from the external jugular vein on days 0, 7, 14, 21, 28, and 35 from the start of treatment. The sera were isolated^[4] and stored at −20° C. until analysis.
# DHBV DNA probe was fluorescent-labeled according to the labeling kit protocol from the manufacturer (Roche Co.). Duck sera were dot-blotted (2 dot per sample) onto nitrocellulose membrane and hybridized with fluorescent-labeled probe for DHBV DNA quantitation^[3]. DHBV DNA 40 μl+DHBsAg 100 μl was used as internal standard. CDP-Star fluorimetry reagent was used for amplification of the fluorescence. Vuego Scan (Brisa-620st) scanner was used for film scanning, and Discovery Series Quantity One software for quantitative analysis of the blots. The blot value was described as “volume” (volume=intensity×mm^2)
# DHBsAg level was determined by ELISA method^[5-8], and the O.D value was obtained by ELISA reader (Bio-TEK Co.) at 490 nm.
# [5] = human hepatitis B virus, 2.2.15 cell line, 48 h
# [6] = 0.5 hr after carrageenin, 0.2 mg/kg/d
# [7] = Week 5 (one week after termination of treatment)
compound,measurement,setting,value
"C[C@H](N)C(=O)N[C@@H](C)C(=O)N[C@@H](Cc1ccccc1)C(=O)O [CMS-023, Ala Ala Phe] (H-Ala-Ala-Phe-OH; N-terminus and C-terminus assumed)",Inhibition ratio to HBeA,[1]; [5],53.7%*
same,Inhibition ratio to HBsA:,[1]; [5],58.4%*
same,% HBV-DNA inhibition,"[2]; human hepatitis B virus, 2.2.15 cell line",70.8%*
"C[C@@H]1C[C@H]2[C@@H]3CCC4=CC(=O)C=C[C@]4(C)[C@@]3(F)[C@@H](O)C[C@]2(C)[C@@]1(O)C(=O)CO [DXM, Dexamethasone]",Inhibition Index 0.5 hr,[3]; [6],63.0** %
same,Swelling 0.5 hr,[3]; [6],2.74 ± 0.10 cm
same,Pre-challenge circumference,"[3]; right foot, 0.2 mg/kg/d i.p., two weeks",2.49 ± 0.05 cm
"IVTNTT [CMS-017, Ile-Val-Thr-Asn-Thr-Thr]",Inhibition ratio to HBeA,"[1]; 2.2.15 cells, 8 days",62.2%*
same,Inhibition ratio to HBsA:,"[1]; 2.2.15 cells, 8 days",68.6%*
same,% HBV-DNA inhibition,[2]; 2.2.15 cells,90.8%*
same,Serum DHBV DNA titer,"[4]; Pre-treatment, 200 μg/kg/day i.m. group",2207.0 ± 237.5 volume
same,Serum DHBsAg O.D. value,"[4]; Pre-treatment, 200 μg/kg/day i.m. group, 490 nm",0.928 ± 0.402
same,Serum DHBV DNA titer,"[4]; Week 1, 200 μg/kg/day i.m.",1991.8 ± 378.9 volume
same,Serum DHBsAg O.D. value,"[4]; Week 1, 200 μg/kg/day i.m.",0.761 ± 0.328
same,Serum DHBV DNA titer,"[4]; Week 2, 200 μg/kg/day i.m.",1925.0 ± 549.9 volume
same,Serum DHBsAg O.D. value,"[4]; Week 2, 200 μg/kg/day i.m.",0.668 ± 0.310
same,Serum DHBV DNA titer,"[4]; Week 3, 200 μg/kg/day i.m.",1743.9 ± 555.0 volume
same,Serum DHBsAg O.D. value,"[4]; Week 3, 200 μg/kg/day i.m.",0.551 ± 0.268
same,Serum DHBV DNA titer,"[4]; Week 4, 200 μg/kg/day i.m.",1544.9 ± 389.7 volume
same,Serum DHBsAg O.D. value,"[4]; Week 4, 200 μg/kg/day i.m.",0.479 ± 0.279
same,Serum DHBV DNA titer,[4]; [7],1742.7 ± 437.0 volume
same,Serum DHBsAg O.D. value,[4]; [7],0.488 ± 0.182
same,rebound of serum DHBV DNA and DHBsAg,[4]; upon discontinuation of treatment for 7 days,rebound was not observed
